# In patent publication US20100249248A1, “LIGAND AGENTS FOR PEROXISOME PROLIFERATOR-ACTIVATED RECEPTORS (PPARs)” (Suntory Holdings Limited, priority 2007, published 2010):
# Values joined by “and” are separate entries in the source; they are usually repeats but may differ in a detail not shown here. Equal values may be shown once.
# Legend:
# Assay type in all cases: cell-based
# PPARα = molecular target: T1, PPARα (Mus musculus, UniProt P23204); experiment: PPARα ligand activity, GAL4::mPPARα luciferase reporter assay in HepG2 cells; conditions: Table 3; positive control run beside each sample; 25 μM
# T1 construct: expressed in transfected cells; host or cells: HepG2 cells (human liver cancer-derived)
# T1 sequence (P23204 1-468): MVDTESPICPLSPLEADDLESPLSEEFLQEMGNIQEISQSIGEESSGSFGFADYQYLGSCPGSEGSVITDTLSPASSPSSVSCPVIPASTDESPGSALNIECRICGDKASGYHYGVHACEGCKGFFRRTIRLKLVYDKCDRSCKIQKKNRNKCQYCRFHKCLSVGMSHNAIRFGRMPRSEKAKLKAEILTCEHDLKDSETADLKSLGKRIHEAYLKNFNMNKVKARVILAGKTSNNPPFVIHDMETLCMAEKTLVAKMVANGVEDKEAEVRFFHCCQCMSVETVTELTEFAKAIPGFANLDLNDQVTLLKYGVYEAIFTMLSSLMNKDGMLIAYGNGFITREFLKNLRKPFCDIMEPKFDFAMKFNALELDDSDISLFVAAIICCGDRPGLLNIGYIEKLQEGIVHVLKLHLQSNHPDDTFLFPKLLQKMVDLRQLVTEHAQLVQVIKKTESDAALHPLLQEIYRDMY
# Protocol: HepG2 cells (human liver cancer-derived cultured cells) were seeded in 96-well culture plates at 1×10^4 cells/well and cultured at 37° C. under 5% CO2 for 24 hours. The medium used was RPMI1640 (Nissui Pharmaceutical Co., Ltd., Japan) containing 10% FBS (fetal bovine serum; Equitech-Bio) and 0.3 […] Pharmaceutical Co., Ltd., Japan). […] At about 24 hours after transfection, the medium was replaced with another medium containing a plant extract, followed by culturing for 24 hours. As a vehicle control, DMSO was used and added in 1/100 volume to the medium. After washing with phosphate-buffered saline (PBS-), the cells were lysed with a cytolysis solution (Cell Culture Lysis Reagent: Promega) and measured for the luminescence intensity of luciferase with a multilabel counter (Wallac) in the presence of a Luciferase Assay Reagent (Promega). On the other hand, a synthetic PPARδ agonist, L-165041 (Sigma, […]), was used as a positive control. […] On the other hand, a synthetic PPARα agonist, WY-14643 (Sigma, 25 μM), was used as a positive control.
# PPARγ = molecular target: T2, PPARγ (Rattus norvegicus, UniProt O88275); experiment: PPARγ ligand activity, PPRE-luciferase reporter in CHO/PPARγ/PPRE cells; conditions: Table 4; positive control run beside each sample; 25 μM
# T2 construct: expressed in transfected cells
# T2 sequence (O88275 1-505): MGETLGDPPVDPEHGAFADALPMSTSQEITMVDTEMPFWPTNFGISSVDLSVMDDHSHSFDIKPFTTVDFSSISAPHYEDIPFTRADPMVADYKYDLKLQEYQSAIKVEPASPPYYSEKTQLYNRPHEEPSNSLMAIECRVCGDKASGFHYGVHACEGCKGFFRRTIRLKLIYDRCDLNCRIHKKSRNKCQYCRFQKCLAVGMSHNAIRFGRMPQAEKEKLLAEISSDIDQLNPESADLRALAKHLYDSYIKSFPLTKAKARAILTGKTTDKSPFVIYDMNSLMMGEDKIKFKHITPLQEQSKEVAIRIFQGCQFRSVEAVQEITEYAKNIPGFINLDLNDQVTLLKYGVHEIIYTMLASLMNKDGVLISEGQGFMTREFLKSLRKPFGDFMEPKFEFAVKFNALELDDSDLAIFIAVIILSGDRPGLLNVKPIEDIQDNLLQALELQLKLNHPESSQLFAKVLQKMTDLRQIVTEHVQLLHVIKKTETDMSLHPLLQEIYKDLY
# Source text: CHO cells used for measurement of PPARγ ligand activity were obtained in the following manner.
# A PPAR reporter plasmid (pPPRE-Luc) was derived from a reporter plasmid, pGL3 (Promega), which contains the SV40 promoter gene and the firefly luciferase gene by being modified to have 3 copies of a PPAR-responsive sequence (PPRE) upstream of the SV40 promoter gene. A PPARγ expression plasmid (pKD-rPPARγ) was obtained by inserting the rat PPARγ gene into an SV40 promoter-driven expression plasmid for mammalian cells. pPPRE-Luc and pKD-rPPARγ were co-transfected into CHO(dhfr-) cells (dihydrofolate reductase-deficient cell line of Chinese hamster ovary cells) using Lipofectamine (Invitorgen). The cells were cultured in D-MEM medium (GIBCO) almost free from thymidine and containing dialyzed fetal bovine serum (GIBCO) to thereby obtain a stable transformant (CHO/PPARγ/PPRE) retaining pPPRE-Luc and pKD-rPPARγ.
# The above cells were seeded in 96-well culture plates at 1×10^4 cells/well and cultured at 37° C. under 5% CO2 for 24 hours. […] After washing with phosphate-buffered saline (PBS-), the cells were lysed with a cytolysis solution (Cell Culture Lysis Reagent: Promega) and measured for the luminescence intensity of luciferase with a multilabel counter (Wallac) in the presence of a Luciferase Assay Reagent (Promega). […]
# PPARδ = molecular target: T3, PPARδ (Mus musculus, UniProt P35396); experiment: PPARδ ligand activity, GAL4::mPPARδ luciferase reporter assay in HepG2 cells
# T3 construct: expressed in transfected cells; host or cells: HepG2 cells (human liver cancer-derived)
# T3 sequence (P35396 1-440): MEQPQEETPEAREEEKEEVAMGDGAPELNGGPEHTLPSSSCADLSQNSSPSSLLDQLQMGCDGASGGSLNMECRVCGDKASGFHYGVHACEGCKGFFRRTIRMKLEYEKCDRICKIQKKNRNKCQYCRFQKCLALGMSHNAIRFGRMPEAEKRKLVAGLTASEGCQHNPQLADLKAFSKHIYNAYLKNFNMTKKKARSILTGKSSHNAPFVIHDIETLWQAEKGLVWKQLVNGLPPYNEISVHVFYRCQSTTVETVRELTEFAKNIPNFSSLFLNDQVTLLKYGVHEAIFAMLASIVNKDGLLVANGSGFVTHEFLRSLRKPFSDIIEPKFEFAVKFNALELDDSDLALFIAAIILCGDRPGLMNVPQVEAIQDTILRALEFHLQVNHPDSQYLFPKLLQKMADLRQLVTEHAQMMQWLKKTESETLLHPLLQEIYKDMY
# Protocol: HepG2 cells (human liver cancer-derived cultured cells) were seeded in 96-well culture plates at 1×10^4 cells/well and cultured at 37° C. under 5% CO2 for 24 hours. The medium used was RPMI1640 (Nissui Pharmaceutical Co., Ltd., Japan) containing 10% FBS (fetal bovine serum; Equitech-Bio) and 0.3 g/L L-Glutamine (Nissui Pharmaceutical Co., Ltd., Japan). These cells were washed with OPTI-MEM (Gibco) and then transfected with pBIND/GAL4::mPPARδ and pG51uc (Promega). […]
# At about 24 hours after transfection, the medium was replaced with another medium containing a plant extract, followed by culturing for 24 hours. […] After washing with phosphate-buffered saline (PBS—), the cells were lysed with a cytolysis solution (Cell Culture Lysis Reagent: Promega) and measured for the luminescence intensity of luciferase with a multilabel counter (Wallac) in the presence of a Luciferase Assay Reagent (Promega). […] For assessment of ligand activity, the ratio of luminescence intensity in a sample to that in the control (vehicle control) was defined as the luminescence ratio of PPARδ ligand activity in the sample, and a sample showing a value of 1.3 or greater was determined as having PPARδ ligand activity.
# The ethanol extract of each plant obtained in Sample Preparation Example 2 was measured for its PPARγ ligand activity in the same manner as shown in Example 1. […]
compound,measurement,setting,value
Cc1cccc(Nc2cc(Cl)nc(SCC(=O)O)n2)c1C [WY-14643],Luminescence ratio in WY-14643,PPARα,4.2 and 4.4 and 7.6
CC1(COc2ccc(CC3SC(=O)NC3=O)cc2)CCCCC1 (stereo not shown) [Ciglitizone],Luminescence ratio in Ciglitizone,PPARγ,2.2 and 2.5 and 2.6 and 2.7 and 3.0 and 2.4
CCCc1c(OCCCOc2ccc(OCC(=O)O)cc2)ccc(C(C)=O)c1O [L-165041],Luminescence ratio in L-165041,"PPARδ; Table 5, positive control run beside each ethanol extract",4.5 and 4.9 and 6.1 and 6.2 and 5.2 and 4.8 and 4.7
same,Luminescence ratio in L-165041,"PPARδ; Table 6, positive control run beside each hot water extract",4.5 and 3.8 and 6.2 and 5.8
